The subject of one test is Vero cells. Nature of the test: MTT cytotoxicity assay on Vero cells. Format: cell-based. The text has this: (§1) Vero cells are known for their ability to assess the safety of new compounds and their sensitivity to a wide range of toxic substances. MDA-MB-231 cells are derived from human […] breast cancer tissue. MDA-MB-231 cells provide a reliable method for assessing the toxicity and effectiveness of potential anticancer compounds, especially those that target estrogen receptors or associated pathways. We assessed the anticancer activity of the compounds on Vero cells and MDA-MB-231 using the MTT (3-(4,5-dimethyl thiazol-2yl)-2,5-diphenyl tetrazolium bromide) assay. The MTT assay is one of the most commonly used for cancer drug screening. This is a basic and easy assay for cytotoxicity, and it is one of the most popular cytotoxicity assays in the research laboratory. We plated cells (1 × 10^5/well) in 96-well plates using 0.2 mL of medium per well. We carefully removed the media from the wells for the MTT assay after incubation. After two to three MEM (w/o) FCS washes, 200 µL of MTT (5 mg/mL) was added to each well. We incubated the plates for 6–7 h in a 5% CO^2 incubator to test for cytotoxicity. Following the incubation, we added […] of vehicle (DMSO) to each well, mixed it thoroughly with a micropipette, and left it for 45 s. NADPH-dependent dehydrogenase catalyzes the conversion of tetrazolium salt (MTT) into a purple formazan product in cells. This indicates the presence of metabolically active cells. We placed the solution in the spectrophotometer’s cuvette and recorded the optical density at 595 nm, using DMSO as the blank reference. Measurements were conducted, and the concentration required for 50% inhibition of viability (IC50) was visually determined. A standard graph was constructed, with the drug concentration plotted on the X-axis and relative cell viability on the Y-axis. %Cell Viability=Mean Optical Density of Individual Sample/Mean Optical Density of Control×100
Background: Tetrazolium dyes change colour on reduction, which living cells bring about.

Test [1] relates to MDA-MB-231 cells. Nature of the test: MTT cytotoxicity assay on MDA-MB-231 cells. Format: cell-based, human.
From the text: as §1

A further test relates to Cyclin D1. In words: RT-qPCR gene expression of Cyclin D1 (ΔΔCt method, GAPDH reference) in MDA-MB-231 cells. Format: cell-based, human. The note with it: for Cyclin D1 ΔΔCt: versus cell control. An excerpt:
(§2) To determine whether the synthesized compounds were repressing the ER alpha protein or not, we performed gene expression analyses for Cyclin D1 and BCL2 using the real-time quantitative polymerase chain reaction (RT-qPCR). RT-qPCR is an efficient, simple, and low-cost technique to quantify gene expression levels. The delta-delta Ct (ΔΔCt) method is a widely used technique for analyzing real-time quantitative PCR (qPCR) data. We chose three compounds, 9b, 9l, and 9m, based on their lowest IC50 values and conducted gene expression studies for BCL2 and Cyclin D1. We used the GAPDH as a reference gene. We chose primer pairings with the lowest penalty value designed by the Primer Express 2.0 software to obtain the best results.
A 100-picomolar primer stock was prepared utilizing primers of Cyclin D1, BCL2, and GAPDH (Table 6), which were then diluted to a 10-picomolar working stock for use in real-time PCR. RNA was extracted from four samples utilizing the PureLink RNA Mini Kit and quantified using the Biophotometer Plus (Table 3). A total of 1 µg of RNA was taken from the isolated RNA and used for cDNA synthesis with the Takara Prime Script 1st Strand cDNA Synthesis Kit. Each real-time PCR experiment utilized 25 ng of cDNA, 10 picomolar forward and reverse primers, and a final reaction volume of 20 µL. Cyclin D1, BCL2, and GAPDH average Ct values were extracted from each sample’s replicates. Then, using the formula below (1), we determined the ΔCt from the mean Ct values of Cyclin D1 and BCL2 with reference to the reference gene’s GAPDH mean Ct values. In the real-time qPCR, the temperature was set at 95 °C for 10 min (denaturation), then 40 cycles at 95 °C for 15 s and 60 °C for one minute. Each sample was processed in triplicate in six-well plates for the qPCR analysis using the Qiagen kit. The comparative Ct was used for quantification analysis, and the Ct values (Ct1, Ct2, and Ct3) were averaged.ΔCt = Ct (gene of interest) − Ct (housekeeping gene)(1)
We calculated the ΔΔCt from the ΔCt values of the Cyclin D1 and BCL2. The […] were calculated using the following Formula (2).ΔΔCt = ΔCt (Sample) − ΔCt (Control)(2)
Finally, we calculated the fold gene expression for CyclinD1 and BCL2 with reference to the reference gene GAPDH using the following Formula (3) (Table 5).Fold gene expression = 2^−ΔΔCt(3)
In general terms: Real-time PCR tracks product formation cycle by cycle.

For a further test, the system named is BCL2. Nature of the test: RT-qPCR gene expression of BCL2 (ΔΔCt method, GAPDH reference) in MDA-MB-231 cells. Format: cell-based, human. The settings on record: versus cell control.
From the text: as §2, with “We chose primer pairings with the lowest penalty value designed by the Primer Express 2.0 software to obtain the best results.” left out
A 100-picomolar primer stock was prepared utilizing primers of Cyclin D1, BCL2, and GAPDH (Table 6), which were then diluted to a 10-picomolar working stock for use in real-time PCR. RNA was extracted from four samples utilizing the PureLink RNA Mini Kit and quantified using the Biophotometer Plus (Table 3). […] Then, using the formula below (1), we determined the ΔCt from the mean Ct values of Cyclin D1 and BCL2 with reference to the reference gene’s GAPDH mean Ct values. […] The comparative Ct was used for quantification analysis, and the Ct values (Ct1, Ct2, and Ct3) were averaged.ΔCt = Ct (gene of interest) − Ct (housekeeping gene)(1)
We calculated the ΔΔCt from the ΔCt values of the Cyclin D1 and BCL2. […]

Test [2] relates to MDA-MB-231 cells. Also on record: method as in PMID 24278556. The note with it: reference drug, reported value; cited from earlier work.

The structures appear in SMILES notation. Where two headings read alike, the source gives them in different places.

We go through 9 compounds from PMC12028564, “A New Class of BRCA1 Mimetics for ERα-Positive Breast Cancer Therapy: Design, Synthesis, In Silico Screening, In Vitro Assay, and Gene Expression Analysis” (Life, 2025).

As usually defined, the IC50 is the concentration that gives 50% inhibition.

Consider `Cc1c/c(=N\NC(=S)/N=C/c2ccc(Cl)cc2Cl)oc2cc(O)ccc12` [Compound 7a], for which the IC50 in the test on Vero cells turned out to be 513 µM; with MDA-MB-231 cells [1] it was 357 µM.
Regarding `COc1ccc(/C=N/C(=S)N/N=c2\cc(C)c3ccc(O)cc3o2)cc1` [Compound 7i], the figures for the IC50 in the test with Vero cells and in the test with MDA-MB-231 cells [1] were 292 µM and 237 µM, respectively.
Regarding `Cc1c/c(=N\NC(=S)/N=C/c2ccc(Br)cc2)oc2cc(O)ccc12` [Compound 7m], the results for the concentration for half-maximal inhibition (IC50) in the test on Vero cells and in the test with MDA-MB-231 cells [1] were 149 µM and 90.5 µM, respectively.
Regarding `Oc1c/c(=N\NC(=S)/N=C/c2ccc(Cl)cc2)oc2ccccc12` [Compound 9b], the IC50 in the test on Vero cells (Chlorocebus sabaeus) is 60.9 µM; in the test with MDA-MB-231 cells [1] (Homo sapiens), 14.5 µM. Also, the “Relative gene expression CyclinD1” value with Cyclin D1 (control = 1) stood at 1.485. Further, the “Cyclin D1 2^(−ΔΔCt)” value in the test with Cyclin D1 (fold gene expression) is 1.485. The “Cyclin D1 ΔΔCt” value in the test with Cyclin D1 was −0.57. The “BCL2 ΔΔCt” value with BCL2 was determined as 1.42.
As for `Oc1c/c(=N\NC(=S)/N=C/c2cccc3ccccc23)oc2ccccc12` [Compound 9c], the values for the concentration for half-maximal inhibition (IC50) in the test with Vero cells and with MDA-MB-231 cells [1] were 87.4 µM and 61.5 µM, respectively.
For `O=[N+]([O-])c1ccc(/C=N/C(=S)N/N=c2\cc(O)c3ccccc3o2)cc1` [Compound 9l], the half-inhibitory concentration (IC50) in the test with Vero cells (Chlorocebus sabaeus) was 87.7 µM; in the test with MDA-MB-231 cells [1] (Homo sapiens), 35.1 µM. Besides, the “Cyclin D1 ΔΔCt” value in the test with Cyclin D1 came out at 2.2.
As for `Oc1c/c(=N\NC(=S)/N=C/c2ccc(Br)cc2)oc2ccccc12` [Compound 9m], the values for the IC50 with Vero cells (Chlorocebus sabaeus) and with MDA-MB-231 cells [1] (Homo sapiens) were 68.7 µM and 42.1 µM, respectively. Also, the “Cyclin D1 ΔΔCt” value in the test with Cyclin D1 is recorded as 2.03. In addition, the “BCL2 ΔΔCt” value with BCL2 is 1.41.
Take `Oc1cc(/C=N/C(=S)N/N=c2\cc(O)c3ccccc3o2)cc(O)c1O` [Compound 9n]: the results for the half-inhibitory concentration (IC50) in the test with Vero cells and with MDA-MB-231 cells [1] were 119 µM and 47.7 µM, respectively.
`O=C(c1ccc(OCCN2CCCCC2)cc1)c1c(-c2ccc(O)cc2)sc2cc(O)ccc12` [Raloxifene]: the IC50 in the test on MDA-MB-231 cells [2] was 13.7 µM.
